Assays:
[1] = target: T1, 5-hydroxytryptamine receptor 1A (Rattus norvegicus, UniProt P19327); test: Displacement of [3H]-8-OH-DPAT from 5HT1A receptor in rat brain hippocampus incubated for 60 mins by radioligand binding assay
T1 sequence (P19327 whole entry): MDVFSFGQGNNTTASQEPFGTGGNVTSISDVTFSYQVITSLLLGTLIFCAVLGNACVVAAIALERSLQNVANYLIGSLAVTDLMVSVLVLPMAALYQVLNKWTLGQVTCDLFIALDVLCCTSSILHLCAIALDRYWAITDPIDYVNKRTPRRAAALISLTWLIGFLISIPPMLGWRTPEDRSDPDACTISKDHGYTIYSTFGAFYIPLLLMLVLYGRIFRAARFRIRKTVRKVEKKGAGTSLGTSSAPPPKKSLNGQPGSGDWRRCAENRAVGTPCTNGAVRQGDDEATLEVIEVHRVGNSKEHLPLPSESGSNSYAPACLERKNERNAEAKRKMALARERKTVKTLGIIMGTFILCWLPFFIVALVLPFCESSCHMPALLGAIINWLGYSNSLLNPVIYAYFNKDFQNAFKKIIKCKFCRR

[2] = target: D(2) dopamine receptor (Rattus norvegicus, UniProt P61169); test: Displacement of [3H]raclopride from D2 receptor in rat brain striatum incubated for 60 mins by radioligand binding assay; type: tissue-based
Sequence of D(2) dopamine receptor (Rattus norvegicus, UniProt P61169) (P61169 whole entry): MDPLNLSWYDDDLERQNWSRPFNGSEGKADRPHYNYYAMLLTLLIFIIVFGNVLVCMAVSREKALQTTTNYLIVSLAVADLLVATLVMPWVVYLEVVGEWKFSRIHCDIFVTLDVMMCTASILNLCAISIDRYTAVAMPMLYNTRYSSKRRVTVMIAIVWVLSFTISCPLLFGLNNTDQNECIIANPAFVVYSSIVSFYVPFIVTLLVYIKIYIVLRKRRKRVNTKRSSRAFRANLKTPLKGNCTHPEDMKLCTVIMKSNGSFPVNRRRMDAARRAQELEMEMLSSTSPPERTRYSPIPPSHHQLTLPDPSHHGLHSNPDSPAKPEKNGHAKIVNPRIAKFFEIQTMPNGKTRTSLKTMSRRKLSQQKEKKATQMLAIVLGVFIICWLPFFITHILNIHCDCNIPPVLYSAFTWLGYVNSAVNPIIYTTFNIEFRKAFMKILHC

[3] = target: T2, 5-hydroxytryptamine receptor 1A (Homo sapiens, UniProt P08908); test: Displacement of [3H]-8-OH-DPAT from full length human cloned 5HT1A receptor expressed in HEK293 cells incubated for 1 hr by radioligand displacement assay; type: cell-based
T2 sequence (P08908 whole entry): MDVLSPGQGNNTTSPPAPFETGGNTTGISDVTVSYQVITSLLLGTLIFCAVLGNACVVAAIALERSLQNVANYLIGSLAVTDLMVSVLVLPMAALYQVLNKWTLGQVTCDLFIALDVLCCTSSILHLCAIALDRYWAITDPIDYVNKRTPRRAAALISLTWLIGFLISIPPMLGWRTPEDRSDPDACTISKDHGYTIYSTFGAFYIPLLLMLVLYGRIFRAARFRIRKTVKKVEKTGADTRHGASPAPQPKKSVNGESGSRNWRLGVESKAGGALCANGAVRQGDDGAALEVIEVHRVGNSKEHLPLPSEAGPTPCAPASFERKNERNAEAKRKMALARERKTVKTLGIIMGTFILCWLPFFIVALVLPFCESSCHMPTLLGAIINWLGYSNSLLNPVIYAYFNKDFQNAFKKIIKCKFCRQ

[4] = target: T3, D(2) dopamine receptor (Homo sapiens, UniProt P14416); test: Displacement of [3H]raclopride from full length human cloned D2L receptor expressed in HEK293 cells incubated for 1 hr by radioligand displacement assay; type: cell-based
T3 sequence (P14416 whole entry): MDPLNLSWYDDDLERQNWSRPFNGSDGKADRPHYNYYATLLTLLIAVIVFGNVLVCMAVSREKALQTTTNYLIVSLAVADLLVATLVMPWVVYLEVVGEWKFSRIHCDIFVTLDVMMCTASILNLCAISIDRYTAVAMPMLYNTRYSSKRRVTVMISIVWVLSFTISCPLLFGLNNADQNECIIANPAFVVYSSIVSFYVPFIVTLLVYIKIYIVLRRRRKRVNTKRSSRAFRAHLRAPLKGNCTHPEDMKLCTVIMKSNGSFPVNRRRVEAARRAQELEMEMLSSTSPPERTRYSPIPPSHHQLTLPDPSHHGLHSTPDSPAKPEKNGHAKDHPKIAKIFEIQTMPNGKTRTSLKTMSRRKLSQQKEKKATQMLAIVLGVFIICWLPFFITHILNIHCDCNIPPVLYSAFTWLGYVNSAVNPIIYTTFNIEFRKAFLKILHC

[5] = target: 5-hydroxytryptamine receptor 7 (Homo sapiens, UniProt P34969); test: Displacement of [3H]5-CT from full length human cloned 5-HT7bR expressed in HEK293 cells incubated for 1 hr by radioligand displacement assay; type: cell-based
Sequence of 5-hydroxytryptamine receptor 7 (P34969 whole entry): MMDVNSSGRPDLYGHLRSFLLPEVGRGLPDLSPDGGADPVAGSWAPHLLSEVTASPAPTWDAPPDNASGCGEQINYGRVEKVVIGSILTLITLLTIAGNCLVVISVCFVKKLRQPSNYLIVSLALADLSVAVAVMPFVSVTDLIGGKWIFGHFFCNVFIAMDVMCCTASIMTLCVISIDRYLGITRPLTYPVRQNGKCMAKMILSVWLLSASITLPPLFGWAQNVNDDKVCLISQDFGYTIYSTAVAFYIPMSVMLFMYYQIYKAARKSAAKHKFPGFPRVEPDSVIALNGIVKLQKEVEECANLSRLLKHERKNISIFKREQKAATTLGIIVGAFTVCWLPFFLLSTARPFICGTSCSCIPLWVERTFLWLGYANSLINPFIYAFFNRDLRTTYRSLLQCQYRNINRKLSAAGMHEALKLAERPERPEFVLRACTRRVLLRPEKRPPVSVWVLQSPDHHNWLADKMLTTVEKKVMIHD

[6] = target: 5-hydroxytryptamine receptor 2A (Homo sapiens, UniProt P28223); test: Displacement of [3H]ketanserin from full length human cloned 5HT2A receptor expressed in CHO-K1 cells incubated for 1 hr by radioligand displacement assay; type: cell-based
Sequence of 5-hydroxytryptamine receptor 2A (Homo sapiens, UniProt P28223) (P28223 whole entry): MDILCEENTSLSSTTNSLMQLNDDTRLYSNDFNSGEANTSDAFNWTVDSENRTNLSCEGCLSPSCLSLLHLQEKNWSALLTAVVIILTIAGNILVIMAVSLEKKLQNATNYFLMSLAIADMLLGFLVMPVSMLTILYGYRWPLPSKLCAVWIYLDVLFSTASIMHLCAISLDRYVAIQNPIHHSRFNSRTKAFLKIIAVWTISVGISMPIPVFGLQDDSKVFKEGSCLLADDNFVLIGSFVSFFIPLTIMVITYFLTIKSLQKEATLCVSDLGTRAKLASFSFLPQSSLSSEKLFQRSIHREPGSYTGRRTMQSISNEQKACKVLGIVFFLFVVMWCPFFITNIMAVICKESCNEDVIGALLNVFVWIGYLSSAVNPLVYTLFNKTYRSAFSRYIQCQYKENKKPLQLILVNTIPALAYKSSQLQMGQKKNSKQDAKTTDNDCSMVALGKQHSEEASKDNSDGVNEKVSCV

[7] = target: 5-hydroxytryptamine receptor 6 (Homo sapiens, UniProt P50406); test: Displacement of [3H]LSD from full length human cloned 5HT6R expressed in HEK293 cells incubated for 1 hr by radioligand displacement assay; type: cell-based
Sequence of 5-hydroxytryptamine receptor 6 (P50406 whole entry): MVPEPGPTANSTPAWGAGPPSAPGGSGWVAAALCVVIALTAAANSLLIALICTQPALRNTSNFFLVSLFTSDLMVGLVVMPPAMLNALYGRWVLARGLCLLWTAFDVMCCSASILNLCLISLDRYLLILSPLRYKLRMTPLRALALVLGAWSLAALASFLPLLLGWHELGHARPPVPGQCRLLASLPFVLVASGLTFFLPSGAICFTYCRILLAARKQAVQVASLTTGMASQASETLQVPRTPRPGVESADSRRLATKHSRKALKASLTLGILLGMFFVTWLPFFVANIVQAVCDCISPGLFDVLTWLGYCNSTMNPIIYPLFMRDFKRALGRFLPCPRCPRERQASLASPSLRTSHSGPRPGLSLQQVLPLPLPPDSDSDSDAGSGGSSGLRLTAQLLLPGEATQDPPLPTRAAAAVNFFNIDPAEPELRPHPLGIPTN

[8] = target: T4, 5-hydroxytryptamine receptor 1A (Homo sapiens) (UniProt P08908); test: Antagonist activity at human 5 HT1A receptor expressed in HEK293 cells assessed as cAMP accumulation incubated for 30 mins in presence of forskolin/8-OH-DPAT by TR-FRET assay; type: functional, cell-based
T4 sequence (whole entry): T2 sequence (P08908 whole entry)

[9] = target: T3, D(2) dopamine receptor; test: Antagonist activity at human D2 receptor expressed in HEK293 cells assessed as cAMP accumulation incubated for 30 mins in presence of forskolin/dopamine by TR-FRET assay; type: functional, cell-based
[10] = target: T3, D(2) dopamine receptor; test: Displacement of [3H]raclopride from human cloned D2 receptor expressed in HEK293 cells by radioligand binding assay; type: cell-based
[11] = target: 5-hydroxytryptamine receptor 2A (Rattus norvegicus, UniProt P14842); test: Displacement of [3H]ketanserin from 5-HT2A receptor in Wistar rat brain frontal cortex incubated for 30 mins by radioligand binding assay; type: tissue-based
Sequence of 5-hydroxytryptamine receptor 2A (Rattus norvegicus, UniProt P14842) (P14842 whole entry): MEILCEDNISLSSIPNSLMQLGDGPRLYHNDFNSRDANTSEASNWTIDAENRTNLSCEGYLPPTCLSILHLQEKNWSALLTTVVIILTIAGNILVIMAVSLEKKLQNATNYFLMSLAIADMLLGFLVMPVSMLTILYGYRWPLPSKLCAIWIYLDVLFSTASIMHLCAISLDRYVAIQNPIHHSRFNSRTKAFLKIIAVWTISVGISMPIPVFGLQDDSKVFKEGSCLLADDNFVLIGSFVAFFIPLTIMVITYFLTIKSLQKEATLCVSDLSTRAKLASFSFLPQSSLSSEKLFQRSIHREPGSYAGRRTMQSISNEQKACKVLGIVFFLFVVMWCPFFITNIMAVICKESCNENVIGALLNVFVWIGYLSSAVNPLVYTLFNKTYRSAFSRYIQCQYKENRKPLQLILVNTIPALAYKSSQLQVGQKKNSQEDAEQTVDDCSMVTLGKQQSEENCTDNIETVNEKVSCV

[12] = target: T1, 5-hydroxytryptamine receptor 1A; test: Displacement of [3H]-8-OH-DPAT from 5HT1A receptor in Wistar rat brain cerebral cortex incubated for 30 mins by liquid scintillation spectrometry; type: tissue-based
[13] = target: T2, 5-hydroxytryptamine receptor 1A; test: Agonist activity at human 5 HT1A receptor expressed in HEK293 cells assessed as inhibition of forskolin-stimulated cAMP accumulation incubated for 30 mins by TR-FRET assay; type: functional, cell-based

| Structure (SMILES) | Ki [3] | Ki [4] | Ki [5] | Ki [6] | Ki [7] | also measured |
| --- | --- | --- | --- | --- | --- | --- |
| O=c1ccc2ccc(OCCCCN3CCN(c4cccc5sccc45)CC3)cc2[nH]1 [BREXPIPRAZOLE] |  |  |  |  |  | Ki [1]: 0.09 nM; Ki [2]: 3.8 nM |
| O=C1c2ccccc2S(=O)(=O)N1CCCCCCN1CCN(c2nsc3ccccc23)CC1 | 23 nM | 9 nM | 45 nM | 23 nM | 58 nM |  |
| O=C1c2ccccc2S(=O)(=O)N1CCCCCCN1CCN(c2cccc3ccccc23)CC1 | 9 nM | 8 nM | 20 nM | 91 nM | 157 nM | Kb [8]: 14 nM; Kb [9]: 14 nM |
| O=C1c2ccccc2S(=O)(=O)N1CCCCCCN1CCN(c2ccccc2Cl)CC1 | 26 nM | 45 nM | 120 nM | 266 nM | 459 nM |  |
| O=C1c2ccccc2S(=O)(=O)N1CCCCN1CCN(c2ncccn2)CC1 [IPSAPIRONE] |  |  |  |  |  | Ki [10]: 1220 nM |
| O=C1c2ccccc2S(=O)(=O)N1CCCCCCN1CCN(c2ccc(Cl)c(Cl)c2)CC1 | 54 nM | 105 nM | 258 nM | 283 nM | 132 nM |  |
| O=C1c2ccccc2S(=O)(=O)N1CCCCCCN1CCN(c2ccccn2)CC1 | 13 nM | 239 nM | 552 nM | 1290 nM | 2350 nM |  |
| O=C1c2ccccc2S(=O)(=O)N1CCCCCCN1CCN(c2cccc(Cl)c2)CC1 | 21 nM | 39 nM | 233 nM | 361 nM | 372 nM |  |
| O=C1c2ccccc2S(=O)(=O)N1CCCCCCN1CCN(c2ccccc2F)CC1 | 12 nM | 24 nM | 322 nM | 307 nM | 1620 nM |  |
| O=C1c2ccccc2S(=O)(=O)N1CCCCN1CCN(c2cccc(C(F)(F)F)c2)CC1 |  |  |  |  |  | Ki [11]: 2250 nM; Ki [12]: 100 nM |
| O=C1c2ccccc2S(=O)(=O)N1CCCCCCN1CCN(c2ccccc2)CC1 | 20 nM | 48 nM | 192 nM | 321 nM | 971 nM |  |
| O=C1c2ccccc2S(=O)(=O)N1CCCCCCN1CCN(c2ccc(Cl)cc2)CC1 | 84 nM | 28 nM |  |  |  |  |
| O=C1c2ccccc2S(=O)(=O)N1CCCCCCN1CCN(c2cccc(Cl)c2Cl)CC1 | 58 nM | 132 nM | 119 nM | 209 nM | 920 nM |  |
| O=C1c2ccccc2S(=O)(=O)N1CCCCCCN1CCN(c2ncccn2)CC1 | 24 nM | 51 nM | 35 nM | 183 nM | 104 nM |  |
| COc1cccc(N2CCN(CCCCCCN3C(=O)c4ccccc4S3(=O)=O)CC2)c1 | 19 nM | 113 nM | 305 nM | 342 nM | 921 nM |  |
| O=C1c2ccccc2S(=O)(=O)N1CCCCCCN1CCN(c2cccc3cccnc23)CC1 | 4 nM | 15 nM | 21 nM | 205 nM | 1720 nM | Kb [8]: 7 nM; Kb [9]: 10 nM |
| O=C1c2ccccc2S(=O)(=O)N1CCCCCCN1CCN(c2ccccc2C(F)(F)F)CC1 | 156 nM | 27 nM | 195 nM | 922 nM | 1270 nM |  |
| COc1ccccc1N1CCN(CCCCCCN2C(=O)c3ccccc3S2(=O)=O)CC1 | 91 nM | 61 nM |  |  |  |  |
| COc1ccc(N2CCN(CCCCCCN3C(=O)c4ccccc4S3(=O)=O)CC2)cc1 | 327 nM | 950 nM |  |  |  |  |
| O=C1c2ccccc2S(=O)(=O)N1CCCCCCN1CCN(c2cccc(C(F)(F)F)c2)CC1 | 25 nM | 7 nM | 58 nM | 167 nM | 52 nM | EC50 [13]: 56 nM; Kb [9]: 319 nM |

— ChEMBL document CHEMBL4304820, “Design, synthesis and biological evaluation of novel serotonin and dopamine receptor ligands being 6-bromohexyl saccharine derivatives” (Bioorg Med Chem Lett, 2019)
